Measurements taken from patent publication US20030211075A1 (priority 2001, published 2003).

Key:
F9 sarcoma = F9 sarcoma mouse model, tumor tissue necrosis; format: in vivo; settings: tTF 4 μg, endotoxin 0.5 μg; three days; spontaneous necrosis 40-50%
Protocol: 1×10^7 F9 sarcoma cells were injected subcutaneously into the right flank of balb/c nude mice. Subcutanous tumors were measured with a caliper in three perpendicular directions a, b, and c and volumes calculated according to the formula V=π/6×a×b×c. Treatment was initiated when subcutaneous tumors reached a size of 150 to 300 μl.
Reagents were administered into the lateral tail vein.
Mice were closely observed after treatment for clinical signs of toxicity and clinical status was documented at defined time points. Three days after treatment, mice were sacrificed and tumors were harvested. Paraffin embedded tissues were stained with hematoxilin and eosin (H&E). Tissue sections were analyzed on a light microscope by two independent investigators and histological findings were documented. Tumor sections with necrotic areas were scanned with a GS-700 imaging densitometer (Biorad, Hercules, Calif.) and areas of necrosis were calculated as % of total section area.

[1] = Clinical signs of toxicity and histology of normal organs in treated tumor-bearing mice; format: in vivo, mouse; settings: for Symptoms: tTF alone (4 μg i.v.), no endotoxin
Protocol: (§1) Mice were closely observed after treatment for clinical signs of toxicity and clinical status was documented at defined time points (5 minutes, 10 minutes, 15 minutes, 30 minutes. 1 hour. 2 hours, 24 hours, 48 hours, 72 hours). Blood samples were taken from the tail vein at 1 hour, 2 hours and 24 hours to measure TNFα blood levels. Three days after treatment, the mice were anesthetized, blood samples were taken from the vena cava for coagulation tests, and an autopsy was performed to document any changes in gross pathology. Tumors, lymph node metastases and the major normal organs (heart, lung, brain, liver, kidney, colon, spleen, pancreas) were harvested and prepared for histological analysis.
(§2) Tissue samples harvested at the time of autopsy were fixed in 3% NBF (normal buffered formalin) and embedded in paraffin wax. Tissue blocs were cut, dewaxed and stained with hematoxilin and eosin (H&E). Tissue sections were analyzed on a light microscope by two independent investigators and histological findings were documented. Tumor sections with necrotic areas were scanned with a GS-700 imaging densitometer (Biorad, Hercules, Calif.) and areas of necrosis were calculated as % of total section area. Statistical Analysis was performed using SPSS software (SPSS Science Software, Erkrath, Germany) applying the Mann-Whitney-U-test for ungrouped data.

[2] = test system: L540 human Hodgkin's tumors; test: Anti-VCAM-1•tTF coaguligand in L540 tumor-bearing mice; format: in vivo, mouse
Protocol: Before coaguligand injection, tumors were viable, having a uniform morphology lacking regions of necrosis. […] Within four hours of coaguligand injection, 40-70% of blood vessels were thrombosed, despite the initial staining of only 20-30% of tumor blood vessels. The thrombosed vessels contained occlusive platelet aggregates, packed erythrocytes and fibrin. In several regions, the blood vessels had ruptured, spilling erythrocytes into the tumor interstitium.
The drug was administered i.v. 3 times at intervals of 4 days.

A20 lymphoma cells = test: In vitro coagulation assay on A20 cells; format: cell-based, mouse
[3] = test system: L540 human Hodgkin's disease tumors; test: Treatment of L540rec tumor-bearing SCID mice with tTF and/or endotoxin, tumor tissue necrosis by densitometry; format: in vivo, mouse; settings: for % tumor necrosis: tTF alone (4 μg; 4 μg or 16 μg), no endotoxin, three days after i.v. treatment; for anti-tumor effect: tTF alone
Protocol: For in vivo studies, a metastasizing mouse model for human Hodgkin's lymphoma was used. 1×10^7 L540rec cells were injected subcutaneously into the right flank of SCID mice resulting in a subcutaneous tumor with lymph node metastases in the regional lymph node stations. Subcutanous tumors were measured with a caliper in three perpendicular directions a, b, and c, and volumes calculated according to the formula V=π/6×a×b×c.
Treatment was initiated when subcutaneous tumors reached a size of 150 to 300 μl. Reagents were administered into the lateral tail vein.
as §1, §2

[4] = test system: C1300 Muγ mouse neuroblastoma; test: C1300 (Muγ) tumor model, coaguligand and tTF: thrombosis and anti-tumor effects; format: in vivo
[5] = test system: 2F2B mouse endothelial cells; test: Binding of tTF to endothelial cells (FACS, cell bound coagulation assay); format: cell-based
Protocol: Cells were washed and coagulation factor mix (as described above) was added. S2765 substrate was added and Factor Xa generation was measured as described above.
2F2B cells were stimulated with LPS (20 μg/ml) or TNFα (500 U/ml) for 4 h at 37° C. […] Fluorescent cells were detected on a flow cytometer (Becton Dickinson, San Jose, Calif.).

immobilized tTF = molecular target: T1, immobilized tTF (Homo sapiens, UniProt P13726); test: Real time binding of tTF to immobilized tTF (surface plasmon resonance); settings: tTF 30 μg/ml alone or preincubated with endotoxin or factor VIIa
T1 construct: amino acid 1-219 of the mature protein; made in house; host or cells: E. coli
T1 sequence (P13726 33-251): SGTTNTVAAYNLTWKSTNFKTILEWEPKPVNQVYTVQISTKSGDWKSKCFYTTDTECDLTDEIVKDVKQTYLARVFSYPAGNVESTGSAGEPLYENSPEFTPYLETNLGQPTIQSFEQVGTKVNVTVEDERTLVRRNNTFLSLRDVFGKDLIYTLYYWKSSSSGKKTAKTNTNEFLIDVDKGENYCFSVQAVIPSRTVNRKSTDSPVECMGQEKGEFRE

3LL mouse lung carcinoma = test: In vivo tumor thrombosis, 3LL; settings: large (>800 mm^3) tumors
Description: (§3) Tumor test systems were of four types: i) 3LL mouse lung carcinoma growing subcutaneously in C57BL/6 mice; ii) C1300 mouse neuroblastoma growing subcutaneously in BALB/c nu/nu mice; iii) HT29 human colorectal carcinoma growing subcutaneously in BALB/c nu/nu mice; and iv) C1300 Muγ mouse neuroblastoma growing subcutaneously in BALB/c nu/nu mice. The C1300 Muγ tumor is an interferon-y secreting transfectant derived from the C 1300 tumor (Watanabe et al., 1989).
(§4) To establish tumors, 10^6 to 1.5×10^7 tumor cells were injected subcutaneously into the right anterior flank of the mice. When tumors had grown to various sizes, mice were randomly assigned to different study groups. […] Fab′, or bispecific antibody. Other mice received equivalent quantities IgG, Fab′ or bispecific antibody alone. The injections were performed slowly into one of the tail veins over approximately 45 seconds, usually followed by 200 μl of saline.
(§5) Twenty-four hours after being injected with tTF or immunoglobulin-tTF conjugates, the mice were anesthetized with metophane and were exsanguinated by perfusion with heparinized saline. Tumors and normal tissues were excised and immediately fixed in 3% (v/v) formalin. Paraffin sections were cut and stained with hematoxylin and eosin. Blood vessels having open lumens containing erythrocytes and blood vessels containing thrombi were counted. […]

[6] = test system: HT29 human colorectal carcinoma; test: HT29 xenograft, tumor growth and necrosis after tTF constructs and Factor VIIa; format: in vivo, mouse
[7] = test system: C1300 mouse neuroblastoma; test: In vivo tumor thrombosis, C1300
Description: as §3, §4, §5

## tTF: extracellular domain of the mature Tissue Factor protein (amino acid 1-219), recombinant truncated human Tissue Factor
F9 sarcoma
  tumor tissue necrosis: 45%
[1]; light microscopy, three days after treatment
  histology of normal organs: No histological abnormalities were seen
[1]; listed as TTF
  Symptoms: None
[1]; listed as endotoxin-free tTF
  Symptoms: no clinical signs of toxicity
[2]; equivalent quantities
  control reagents that caused thrombosis: None
[2]; i.v. 3 times at intervals of 4 days
  effect on tumor growth: did not affect tumor growth
A20 lymphoma cells; 0.1 nM Factor VIIa
  increase in coagulation-inducing potency: 2-5 fold
A20 lymphoma cells; 10^−10 M tTF219, 13.5 nM Factor VIIa
  plasma coagulation time: 20 s
A20 lymphoma cells; 10^−10 M tTF219, absence of Factor VIIa
  plasma coagulation time: 60 s
A20 lymphoma cells; localized on A20 cells via bispecific antibody B21-2/10H10
  concentration at which plasma coagulated in 50 seconds: 3 nM
A20 lymphoma cells; tTF bound to A20 cells by B21-2/10H10, mouse plasma, untreated cells 164 seconds
  time to visible fibrin strands: 36 s
[3]
  % tumor necrosis: 0%
[3]; listed as TTF
  % tumor necrosis: 4%
[3]; listed as endotoxin-free tTF
  % tumor necrosis: 0%
[3]; 4 μg to 16 μg
  anti-tumor effect: no anti-tumor effect
[3]; 100 μg
  anti-tumor effect: anti-tumor effects begin to appear
[4]; 24 hours after injection of tTF219
  thrombosis of tumor vessels: practically all vessels in all regions of the tumor were thrombosed
[4]; paraffin sections 30 minutes to 24 hours after administration
  thrombi or morphological abnormalities in normal organs: neither thrombi, nor histological or morphological abnormalities were visible
[4]; small (<500 mm^3) tumors
  effect on tumor vessels: largely unaffected
[4]; tTF alone or mixed with control bispecific antibodies
  tumor growth versus antibodies or saline alone: grew significantly more slowly
[5]
  binding to endothelial cells expressing tissue factor: no binding
Immobilized tTF
  binding to immobilized tTF: did not bind to or homodimerize with immobilized tTF
3LL mouse lung carcinoma
  tumor vessels thrombosed, average: 62%
[6]; large (1200 mm^3) tumors
  duration of discontinued growth after treatment: about 7 days
[6]; mouse, in vivo, iv
  average area of necrosis in tumor sections: some necrosis
[7]; large tumors (>1000 mm^3), 24 hours after injection
  thrombosis of tumor vessels: virtually all vessels were thrombosed
[7]; small (<500 mm^3) tumors
  effect on tumor vessels: largely unaffected
